Measurements: patent publication US9204653B2, “5-fluoro pyrimidine derivatives” (DOW AGROSCIENCES LLC, priority 2008, dated 2015)
Read-outs that look alike come from different tables or passages of the source.

System: Mycosphaerella graminicola; Anamorph: Septoria tritici; Bayer Code SEPTTR
Assay: Leaf blotch of wheat, foliar fungicide treatment, one day protectant (1DP) or three day curative (3DC)
Assay type: in vivo, Septoria tritici on wheat plants (variety Yuma)
Details: Zymoseptoria tritici, percent disease control rating
[1] = 24 h, one day protectant (1DP), read-out: SETTTR 1DP 25 ppm
[2] = 24 h, one day protectant (1DP), read-out: SEPTTR 1DP 100 ppm
[3] = 72 h, three day curative (3DC), read-out: SEPTTR 3DC 25 ppm
[4] = 72 h, three day curative (3DC), read-out: SEPTTR 3DC 100 ppm

| Compound | pest or weed control at 25 ppm [1] [%] | pest or weed control at 100 ppm [2] [%] | pest or weed control at 25 ppm [3] [%] | pest or weed control at 100 ppm [4] [%] |
| --- | --- | --- | --- | --- |
| Nc1nc(OCc2nc3ccccc3s2)ncc1F [Compound 104] | 76 to 100 | 76 to 100 | 76 to 100 | 76 to 100 |
| Fc1cnc(OCc2ccccc2)nc1N/N=C/C1CC1 [Compound 105] | 0 to 25 | 0 to 25 | 0 to 25 | 0 to 25 |
| Nc1nc(OCCCC2CCCC2)ncc1F [Compound 106] | 0 to 25 | 0 to 25 | 0 to 25 | 26 to 50 |
| CC(=O)Nc1nc(OCc2cccc(F)c2)ncc1F [Compound 107] | 76 to 100 | 76 to 100 | 76 to 100 | 76 to 100 |
| Cn1ccc(COc2ncc(F)c(/N=C/N3CCOCC3)n2)n1 [Compound 108] | 76 to 100 | 76 to 100 | 76 to 100 | 76 to 100 |
| COc1cccc(COc2ncc(F)c(N(N)C3CCCCC3)n2)c1 [Compound 111] | 0 to 25 | 0 to 25 | 0 to 25 | 0 to 25 |
| CN(C)/C=N/c1nc(OC(=O)OCc2ccccc2)ncc1F [Compound 112] | 76 to 100 | 76 to 100 | 76 to 100 | 76 to 100 |
| COc1ccc(Oc2ncc(F)c(NCO)n2)cc1 [Compound 113] | 51 to 75 | 76 to 100 | 0 to 25 | 26 to 50 |
| CCCNC(=O)Nc1nc(OCc2ccn(C)n2)ncc1F [Compound 114] | 0 to 25 | 0 to 25 | 0 to 25 | 0 to 25 |
| Fc1cnc(OCc2ccccc2)nc1-n1ccnc1 [Compound 115] | 76 to 100 | 76 to 100 | 76 to 100 | 76 to 100 |
| O=C(NCc1ccccc1F)Nc1nc(OCc2cccs2)ncc1F [Compound 116] | 0 to 25 | 0 to 25 | 0 to 25 | 0 to 25 |
| O=[N+]([O-])c1ccccc1SNc1nc(OCc2cccc(F)c2)ncc1F [Compound 117] | 26 to 50 | 51 to 75 | 26 to 50 | 26 to 50 |
| CCCNC(=S)Nc1nc(OCc2cccc(OC)c2)ncc1F [Compound 119] | 26 to 50 | 76 to 100 | 51 to 75 | 76 to 100 |
| Nc1nc(OCc2cccc3ccccc23)ncc1F [Compound 120] | 76 to 100 | 76 to 100 | 76 to 100 | 76 to 100 |
| CC(Oc1ncc(F)c(NSc2ccccc2[N+](=O)[O-])n1)c1ccc(F)cc1 (stereo not drawn) [Compound 126] | 76 to 100 | 76 to 100 | 76 to 100 | 76 to 100 |
| Nc1nc(OCCc2cccc(C(F)(F)F)c2)ncc1F [Compound 129] | 26 to 50 | 76 to 100 | 76 to 100 | 76 to 100 |
| CN(C)/C=N/c1nc(OC(=O)C(C)(C)C)ncc1F [Compound 130] | 76 to 100 | 76 to 100 | 76 to 100 | 76 to 100 |
| CN(C)/C=N/c1nc(OS(C)(=O)=O)ncc1F [Compound 131] | 26 to 50 | 51 to 75 | 26 to 50 | 76 to 100 |
| Cc1nn(C)c2sc(COc3ncc(F)c(N)n3)cc12 [Compound 132] | 76 to 100 | 76 to 100 | 76 to 100 | 76 to 100 |
| Nc1nc(OCc2cccc(CO)c2)ncc1F [Compound 133] | 51 to 75 | 76 to 100 | 51 to 75 | 76 to 100 |
| CCOC(=O)COC(=O)Nc1nc(OCc2ccccc2)ncc1F [Compound 134] | 0 to 25 | 51 to 75 | 51 to 75 | 76 to 100 |
| Nc1nc(OCc2ccc(OC(F)F)cc2)ncc1F [Compound 136] | 76 to 100 | 76 to 100 | 76 to 100 | 76 to 100 |
| ONc1nc(OCc2ccc(F)cc2)ncc1F [Compound 138] | 76 to 100 | 76 to 100 | 76 to 100 | 76 to 100 |

| Compound | pest or weed control at 25 ppm [1] [%] | pest or weed control at 100 ppm [2] [%] | pest or weed control at 25 ppm [3] [%] | pest or weed control at 100 ppm [4] [%] |
| --- | --- | --- | --- | --- |
| Nc1nc(OCc2cc(C(F)(F)F)cc(C(F)(F)F)c2)ncc1F [Compound 139] | 26 to 50 | 51 to 75 | 0 to 25 | 26 to 50 |
| Cc1cccc(C)c1C(=O)Oc1ncc(F)c(/N=C/N(C)C)n1 [Compound 140] | 76 to 100 | 76 to 100 | 76 to 100 | 76 to 100 |
| N#Cc1cccc(COc2ncc(F)c(NC(=O)Nc3ccccc3F)n2)c1 [Compound 142] | 0 to 25 | 0 to 25 | 0 to 25 | 0 to 25 |
| Nc1nc(OCc2cccc(C(F)(F)F)c2F)ncc1F [Compound 144] | 76 to 100 | 76 to 100 | 76 to 100 | 76 to 100 |
| Cc1ccc(C(C)Oc2ncc(F)c(N)n2)cc1C (stereo not drawn) [Compound 145] | 76 to 100 | 76 to 100 | 76 to 100 | 76 to 100 |
| CC(C)N(O)c1nc(OCc2ccc(F)cc2)ncc1F [Compound 147] | 0 to 25 | 51 to 75 | 26 to 50 | 26 to 50 |
| COc1cccc(COc2ncc(F)c(N/N=C\c3nc(C)cs3)n2)c1 [Compound 148] | 51 to 75 | 51 to 75 | 0 to 25 | 0 to 25 |
| CC(Oc1ncc(F)c(NC(=O)c2ccccc2)n1)c1ccc(F)cc1 (stereo not drawn) [Compound 149] | 26 to 50 | 76 to 100 | 0 to 25 | 51 to 75 |
| CCOC(=O)Nc1nc(OCc2ccccc2OC)ncc1F [Compound 150] | 0 to 25 | 76 to 100 | 26 to 50 | 76 to 100 |
| O=[N+]([O-])c1ccccc1SNc1nc(OCc2ccc3c(c2)OCO3)ncc1F [Compound 151] | 0 to 25 | 0 to 25 | 26 to 50 | 26 to 50 |
| Cc1cc(/C=N/Nc2nc(OCc3ccccc3)ncc2F)n(C)n1 [Compound 152] | 26 to 50 | 76 to 100 | 26 to 50 | 76 to 100 |
| N#Cc1cccc(COc2ncc(F)c(NCO)n2)c1 [Compound 153] | 76 to 100 | 76 to 100 | 76 to 100 | 76 to 100 |
| Nc1nc(OCc2c(F)cc(Br)cc2F)ncc1F [Compound 154] | 76 to 100 | 76 to 100 | 76 to 100 | 76 to 100 |
| Nc1nc(OCc2ccc(F)c(Br)c2)ncc1F [Compound 156] | 76 to 100 | 76 to 100 | 76 to 100 | 76 to 100 |
| O=[N+]([O-])c1ccccc1SNc1nc(OCc2ccsc2)ncc1F [Compound 157] | 26 to 50 | 76 to 100 | 26 to 50 | 26 to 50 |
| COCCCOc1ncc(F)c(NC(=O)Nc2ccsc2)n1 [Compound 159] | 0 to 25 | 0 to 25 | 26 to 50 | 0 to 25 |
| CN1CCCC/C1=N\c1nc(OCc2ccc(F)cc2)ncc1F [Compound 160] | 76 to 100 | 76 to 100 | 76 to 100 | 76 to 100 |
| COc1cccc(COc2ncc(F)c(NO)n2)c1 [Compound 161] | 76 to 100 | 76 to 100 | 26 to 50 | 76 to 100 |
| Cc1ccc(COc2ncc(F)c(NCOCc3ccccc3)n2)cc1 [Compound 162] | 26 to 50 | 76 to 100 | 0 to 25 | 0 to 25 |
| N#Cc1cccc(COc2ncc(F)c(NCOCc3ccccc3)n2)c1 [Compound 167] | 0 to 25 | 26 to 50 | 0 to 25 | 0 to 25 |
| Fc1ccccc1CNc1nc(OCc2cccs2)ncc1F [Compound 168] | 0 to 25 | 26 to 50 | 0 to 25 | 26 to 50 |
| CCCNC(=O)Nc1nc(OCc2ccc(OC)c(F)c2)ncc1F [Compound 170] | 0 to 25 | 0 to 25 | 0 to 25 | 0 to 25 |
